Structures are written as SMILES.

The nature of assay [1]: Binding affinity to heme in aqueous solution.
Assay [2] relates to Plasmodium falciparum. The experiment in a line: Antimalarial activity against Plasmodium falciparum D6 in MSF assay. It counts as functional, organism-based.
For assay [3], the system named is Plasmodium falciparum. The experiment in a line: Antimalarial activity against Plasmodium falciparum W2 in MSF assay. It is filed as functional, organism-based.

The term IC50 denotes the point on the concentration scale where inhibition reaches its midpoint. A lower IC50 goes with greater potency in that assay. `CCN(CC)CCCCCOc1ccc2c(=O)c3ccc(OCCCCCN(CC)CC)cc3oc2c1`: in assay [1], the Ka was 8.2 10^5/M. The values for the concentration for half-maximal inhibition (IC50) in the assay with Plasmodium falciparum [2] and in the assay with Plasmodium falciparum [3] were 180 nM and 120 nM, respectively.

As for `CCN(CC)CCCCCOc1ccc2c(=O)c3ccc(OCCCCCN(CC)CC)c(F)c3oc2c1F`, the Ka in assay [1] was 0.6 10^5/M. In addition, the IC50 worked out at 93 nM in the assay with Plasmodium falciparum [2] and 150 nM in the assay with Plasmodium falciparum [3].

Consider `C=CC1CN2CC[C@H]1C[C@H]2[C@H](O)c1ccnc2ccc(OC)cc12` (single isomer, unassigned) [QUININE], for which the Ka in assay [1] is 0.2 10^5/M. For the same compound, the half-inhibitory concentration (IC50) with Plasmodium falciparum [2] came out at 11 nM; in the assay on Plasmodium falciparum [3] it was 60 nM.

As to `O[C@@H](c1cc(C(F)(F)F)nc2c(C(F)(F)F)cccc12)[C@H]1CCCCN1` [MEFLOQUINE], in assay [1], the Ka was 0.1 10^5/M. Moreover, the IC50 with Plasmodium falciparum [2] worked out at 5.9 nM; with Plasmodium falciparum [3], 0.7 nM.

For the origin of these results see ChEMBL document CHEMBL1141639, “Synthesis and heme-binding correlation with antimalarial activity of 3,6-bis-(omega-N,N-diethylaminoamyloxy)-4,5-difluoroxanthone” (Bioorg Med Chem, 2008).
